Reference: patent US12521350B2, “Liquid crystalline dosage form for administering a statin” (CUBOPHARM PTY LTD, priority 2017, dated 2026)

Tests used:
[1] = 10 mg, after 6 weeks therapy; cited from earlier work
human subjects = assay: Blood lipid changes after three single 5 mg rosuvastatin doses (Example 7); assay type: in vivo
Source text: Each participant was given a single dose of medication on separate occasions after appropriate wash-out periods. […]

[2] = In vitro release/permeation of rosuvastatin through porcine buccal mucosa in modified Ussing chambers; assay type: in vitro ADME, pigs
Description: Porcine buccal mucosa was freshly isolated from pigs cheeks, mounted between modified Ussing chambers with a donor chamber, receptor chamber and the porcine buccal mucosa in between with a diffusional area of 0.64 cm^2, and incubated in Krebs bicarbonate Ringer buffer (KBR, pH 7.4) for 30 min. The mixture or tablet containing rosuvastatin (supplied by Aspen Pharmacare Australia) were applied to the porcine buccal mucosa (ie in the donor chamber) and, when necessary, Parafilm was applied to cover the formulation (ie for tablets and for mixtures containing glyceryl monooleate (GMO) and rosuvastatin). The Parafilm prevented the various formulations from detaching from the buccal mucosa. KBR buffer (1.5 mL) was then added to both the donor and receptor chambers, and receptor samples (200 μL) were collected from the receptor chamber at various time points up to 4-5 hours to determine the amount of rosuvastatin that passed through the porcine buccal mucosa to the receptor chamber. 200 μL of fresh KBR was dispensed into the receptor chamber after each collection (to ensure volume balance). Receptor chamber samples were provided to Aspen Pharmacare Australia for quantification of rosuvastatin by HPLC.
Positive control was tested by making rosuvastatin solutions of 0.4 and 0.8 mg/1.5 ml KBR solution, equivalent to 1:[…] ODT's. […]

[3] = Mean of 3 subjects, three single 5 mg doses
[4] = Person (buccal dosing), three single 5 mg doses
[5] = Person one (sublingual dosing), three single 5 mg doses
[6] = Person two (sublingual dosing), three single 5 mg doses
[7] = after three single 5 mg rosuvastatin doses

Compound: CC(C)c1c(C(=O)Nc2ccccc2)c(-c2ccccc2)c(-c2ccc(F)cc2)n1CC[C@@H](O)C[C@@H](O)CC(=O)O [atorvastatin]
- Reductions in LDL-C [1]: 37%

Compound: CC(C)c1nc(N(C)S(C)(=O)=O)nc(-c2ccc(F)cc2)c1/C=C/[C@@H](O)C[C@@H](O)CC(=O)O [rosuvastatin]
- % change in HDL (human subjects; [3]): 4.8%
- % change in LDL (human subjects; [3]): −26.54%
- % change in Triglycerides (human subjects; [3]): −7.91%
- % change in total cholesterol (human subjects; [3]): −16.8%
- % change in HDL (human subjects; [4]): 5.9%
- % change in LDL (human subjects; [4]): −35.7%
- % change in Triglycerides (human subjects; [4]): 20.0%
- % change in total cholesterol (human subjects; [4]): −20.3%
- % change in HDL (human subjects; [5]): −5.9%
- % change in LDL (human subjects; [5]): −21.05%
- % change in Triglycerides (human subjects; [5]): −37.5%
- % change in total cholesterol (human subjects; [5]): −17.5%
- % change in total cholesterol (human subjects; Person two (sublingual dosing), after 5 mg Crestor, 5 mg 1:1 tablet and 5 mg 7:1 tablet on consecutive days): −12.7%
- % change in HDL (human subjects; [6]): 14.3%
- % change in LDL (human subjects; [6]): −22.9%
- % change in Triglycerides (human subjects; [6]): −16.6%
- increase of HDL (human subjects; [7]): 5%
- reduction of low density lipoproteins (LDL-C) (human subjects; [7]): 27%
- reduction of total cholesterol (TC) (human subjects; [7]): 17%
- Total rosuvastatin absorbed per minute ([2]; positive control solution 0.4 mg/1.5 ml KBR, equivalent to 1:1 ODT): 0.6 ng/mL
- Total rosuvastatin absorbed per minute ([2]; positive control solution 0.8 mg/1.5 ml KBR, equivalent to 7:1 ODT): 0.3 ng/mL
